Patent US8598182B2, “Insecticidal pyrimidinyl aryl hyrdrazones” (Dow AgroSciences, LLC., priority 2007, dated 2013)

Assays:
[1] = tested on: Corn Earworm (Helicoverpa zea); assay: Insecticidal diet-surface test for corn earworm; format: in vivo; conditions: second-instar corn earworm, 50 ug/cm2 on diet surface, 5 days after treatment, dead insects of 8
Experimental: (§1) The compounds identified in Table 1 were prepared using the procedures illustrated in the foregoing examples, and the compounds were tested against beet armyworm and corn earworm as follows:
(§2) Insecticidal Test for Corn Earworm (Helicoverpa zea) and Beet Armyworm (Spodoptera exigua).
(§3) To prepare test solution, the test compound was formulated at 2000 ppm solution as 4 mg/2 mL of 9 acetone:1 tap water. 50 μL of the 2000 ppm (equivalent to 50 ug/cm^2 dose on diet surface area) test solution was pipetted upon the surface of 1 mL of lepidopteran diet (Southland Multi-Species Lepidopteran Diet) contained in each of eight wells per insect species (one well=1 replication). A second-instar corn earworm and beet armyworm was placed upon the treated diet in each well once the solvent had air-dried. Trays containing the treated diet and larvae were covered and then held in a growth chamber at 25° C., 50-55% RH, and 16 hr light:8 hr dark for 5 days. Observation were conducted 5 days after treatment and infestation. The number of dead insects of 8 per species per treatment was then determined and the results are given in Table 1 as percent control at a dose of […].
(§4) Keys to the table: Mass spectral data were obtained using liquid chromatography mass spectroscopy (LC-MS). The masses are detected using electrospray ionization (ESI) and reported as Mol Ion (M+H, M−H); AVG LAPHEG 50 refers to activity against beet army worm (Spodoptera exigua) as defined above; AVG HELIZE 50 refers to activity against corn ear worm (Helicoverpa zea) as described above.

[2] = tested on: Beet Armyworm (Spodoptera exigua); assay: Insecticidal diet-surface test for beet armyworm; format: in vivo; conditions: second-instar beet armyworm, 50 ug/cm2 on diet surface, 5 days after treatment, dead insects of 8
Experimental: as §1, §2, §3, §4

Compound | HELIZE 50 (ug/cm2), percent control [1] | LAPHEG 50 (ug/cm2), percent control [2]
Fc1ccc(Nc2cc(Cl)nc(N/N=C/c3ccc(OC(F)(F)F)cc3)n2)cc1C(F)(F)F [Compound 1, (6-Chloro-2-{N′-[1-(4-trifluoromethoxyphenyl)-methylidene]-hydrazino}-pyrimidin-4-yl)-(4-fluoro-3-trifluoromethylphenyl)amine] | 100% | 100%
CN(c1ccc(OC(F)(F)F)cc1)c1cc(C(F)(F)F)nc(N/N=C/c2ccc(OC(F)(F)F)cc2)n1 [Compound 2, Methyl-(4-trifluoromethoxyphenyl)-(2-{N′-[1-(4-trifluoromethoxy-phenyl)-methylidene]-hydrazino}-6-trifluoromethylpyrimidin-4-yl)amine] | 50% | 0%
Fc1ccc(Nc2cc(N/N=C/c3ccc(OC(F)(F)F)cc3)nc(NCc3ccc(Cl)nc3)n2)cc1C(F)(F)F [Compound 3, N-[2-(6-Chloropyridin-3-ylmethyl)]-N-[4-(4-fluoro-3-trifluoromethylphenyl)]-6-{N′-[1-(4-trifluoromethoxyphenyl)-methylidene]-hydrazino}pyrimidine-2,4-diamine] | 100% | 100%
Fc1ccc(Nc2ccnc(N/N=C/c3ccc(OC(F)(F)C(F)F)cc3)n2)cc1C(F)(F)F [Compound 4] | 100% | 100%
FC(F)C(F)(F)Oc1ccc(/C=N/Nc2nc(Cl)cc(Nc3ccc(OC(F)(F)C(F)F)cc3)n2)cc1 [Compound 5] | 88% | 100%
FC(F)C(F)(F)Oc1ccc(Nc2cc(Cl)nc(N/N=C/c3ccc(OC(F)(F)F)cc3)n2)cc1 [Compound 6] | 100% | 100%
FC(F)C(F)(F)Oc1ccc(Nc2cc(Cl)nc(N/N=C/c3cccc(OC(F)(F)C(F)F)c3)n2)cc1 [Compound 7] | 25% | 88%
Fc1ccc(/C=N/Nc2nc(Cl)cc(Nc3ccc(OC(F)(F)C(F)F)cc3)n2)cc1C(F)(F)F [Compound 8] | 100% | 100%
FC(F)C(F)(F)Oc1ccc(Nc2cc(Cl)nc(N/N=C/c3ccc4c(c3)OC(F)(F)O4)n2)cc1 [Compound 9] | 100% | 100%
FC(F)C(F)(F)Oc1ccc(Nc2cc(Cl)nc(N/N=C/c3ccc(Cl)cc3)n2)cc1 [Compound 10] | 88% | 63%
Fc1ccc(Nc2cc(Cl)nc(N/N=C/c3ccc(Cl)cc3)n2)cc1C(F)(F)F [Compound 11] | 100% | 100%
Fc1cnc(N/N=C/c2ccc(Br)cc2)nc1Nc1ccc(OC(F)(F)F)cc1 [Compound 12] | 100% | 0%
Fc1cnc(N/N=C/c2ccc(OC(F)(F)F)cc2)nc1Nc1ccc(OC(F)(F)F)cc1 [Compound 13] | 100% | 0%
Fc1cnc(N/N=C/c2ccc(OC(F)(F)C(F)F)cc2)nc1Nc1ccc(OC(F)(F)F)cc1 [Compound 14] | 88% | 0%
Fc1cnc(N/N=C/c2cccc(OC(F)(F)F)c2)nc1Nc1ccc(OC(F)(F)F)cc1 [Compound 15] | 75% | 0%
Fc1cnc(N/N=C/c2ccc(Cl)cc2)nc1Nc1ccc(OC(F)(F)F)cc1 [Compound 16] | 100% | 100%
